The results in this text go back to patent publication US7074789B2, “Kinase inhibitors” (Amgen Inc., priority 1999, dated 2006).

A value given as a limit tells only on which side of the number the result lay.

Format in all cases: biochemical
For assay [1], the target named is T1, EPHB4 (Homo sapiens, UniProt P54760).
T1 construct: Kinases are expressed as either kinase domains or full length constructs; made in house
T1 sequence (P54760 16-987): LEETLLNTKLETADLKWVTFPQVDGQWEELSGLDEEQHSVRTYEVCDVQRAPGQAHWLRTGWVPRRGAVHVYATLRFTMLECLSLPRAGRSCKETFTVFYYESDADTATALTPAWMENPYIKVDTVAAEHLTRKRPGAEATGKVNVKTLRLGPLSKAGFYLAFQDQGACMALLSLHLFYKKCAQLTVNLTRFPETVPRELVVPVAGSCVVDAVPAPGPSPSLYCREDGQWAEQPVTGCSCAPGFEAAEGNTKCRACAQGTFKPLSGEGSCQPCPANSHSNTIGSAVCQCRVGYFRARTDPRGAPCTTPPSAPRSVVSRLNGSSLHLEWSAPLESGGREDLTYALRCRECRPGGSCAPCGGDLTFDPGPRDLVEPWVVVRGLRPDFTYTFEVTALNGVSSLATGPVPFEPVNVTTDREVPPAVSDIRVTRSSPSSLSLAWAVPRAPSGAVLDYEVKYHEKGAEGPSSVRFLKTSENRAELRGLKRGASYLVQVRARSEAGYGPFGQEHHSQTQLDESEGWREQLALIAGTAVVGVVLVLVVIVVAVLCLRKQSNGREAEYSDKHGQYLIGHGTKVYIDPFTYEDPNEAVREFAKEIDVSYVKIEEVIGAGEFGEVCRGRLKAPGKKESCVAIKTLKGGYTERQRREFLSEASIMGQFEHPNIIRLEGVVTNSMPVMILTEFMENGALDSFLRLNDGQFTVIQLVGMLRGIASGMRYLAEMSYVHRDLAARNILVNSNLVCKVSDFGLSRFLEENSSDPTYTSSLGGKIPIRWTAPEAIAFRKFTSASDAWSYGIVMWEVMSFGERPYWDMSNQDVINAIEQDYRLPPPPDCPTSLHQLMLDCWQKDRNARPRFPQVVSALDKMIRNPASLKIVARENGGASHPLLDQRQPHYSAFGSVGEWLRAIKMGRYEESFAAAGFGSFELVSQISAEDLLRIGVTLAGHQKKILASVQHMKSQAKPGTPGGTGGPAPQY
The assay is described as follows: Kinase inhibition assay (33P transfer), EPHB4. The following applies: read-out: EPHB4-1.

Assay [2] addresses T2, Src (Homo sapiens, UniProt P12931).
T2 construct: Kinases are expressed as either kinase domains or full length constructs; made in house
Description: Kinase inhibition assay (33P transfer), Src. The following applies: Table 6, Src-1 kinase inhibition class. The procedure, abridged: (§1)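 Radiometric format: recombinant tagged kinase (catalytic domain or whole protein, sometimes combined with regulatory polypeptides) phosphorylates immobilised poly(Glu,Tyr) 4:1 or poly(Arg,Ser) 3:1 using [33P]ATP. Wells are washed in 0.5% phosphoric acid, then counted. IC50 is taken where substrate labelling falls by half.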

Assay [3] deals with T3, Ret-1 (Homo sapiens, UniProt P07949).
T3 construct: Kinases are expressed as either kinase domains or full length constructs; made in house
The assay is described as follows: Kinase inhibition assay (33P transfer), Ret. The following applies: Table 6, Ret-1 kinase inhibition class.

Assay [4] deals with T4, Flt-1 (Homo sapiens, UniProt P17948).
T4 construct: Kinases are expressed as either kinase domains or full length constructs; made in house
Description: Kinase inhibition assay (33P transfer), Flt-1. In short, it runs like this: as §1

Assay [5] concerns the target T5, Lyn (Homo sapiens, UniProt P07948).
T5 construct: Kinases are expressed as either kinase domains or full length constructs; made in house
Description: Kinase inhibition assay (33P transfer), Lyn. The following applies: Table 6, Lyn-1 kinase inhibition class. The procedure, abridged:
as §1

Assay [6] has as its target T6, ErbB4 (Homo sapiens, UniProt Q15303).
T6 construct: Kinases are expressed as either kinase domains or full length constructs; made in house
Description: Kinase inhibition assay (33P transfer), ErbB4. The following applies: read-out: ErbB4-1.

The target in assay [7] is T7, Fyn (Homo sapiens, UniProt P06241).
T7 construct: Kinases are expressed as either kinase domains or full length constructs; made in house
Description: Kinase inhibition assay (33P transfer), Fyn. The following applies: read-out: Fyn-1. In short, it runs like this:
as §1

In assay [8] the target is T8, FGFR1 (Homo sapiens, UniProt P11362).
T8 construct: Kinases are expressed as either kinase domains or full length constructs; made in house
Description: Kinase inhibition assay (33P transfer), FGFR1. The following applies: read-out: FGFR1-1.

Assay [9] addresses T9, Hck-1 (Homo sapiens, UniProt P08631).
T9 construct: Kinases are expressed as either kinase domains or full length constructs; made in house
The assay is described as follows: Kinase inhibition assay (33P transfer), Hck. The following applies: Table 6, Hck-1 kinase inhibition class.

T5 sequence (P07948 whole entry, species assumed, the tested form may be a part): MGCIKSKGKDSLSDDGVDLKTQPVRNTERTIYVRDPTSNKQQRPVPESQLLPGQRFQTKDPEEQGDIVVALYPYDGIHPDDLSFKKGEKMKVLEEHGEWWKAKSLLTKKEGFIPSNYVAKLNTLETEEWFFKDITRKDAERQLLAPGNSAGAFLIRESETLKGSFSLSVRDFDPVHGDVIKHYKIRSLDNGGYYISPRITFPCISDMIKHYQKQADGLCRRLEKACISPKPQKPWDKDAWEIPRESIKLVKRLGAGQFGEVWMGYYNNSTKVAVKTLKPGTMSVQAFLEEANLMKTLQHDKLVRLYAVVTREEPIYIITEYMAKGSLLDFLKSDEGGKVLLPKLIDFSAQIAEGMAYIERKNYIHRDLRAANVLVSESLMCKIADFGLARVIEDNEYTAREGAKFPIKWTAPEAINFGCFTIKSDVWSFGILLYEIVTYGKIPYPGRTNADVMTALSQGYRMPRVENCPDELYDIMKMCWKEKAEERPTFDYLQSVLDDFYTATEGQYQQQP
T9 sequence (P08631 whole entry, the tested form may be a part): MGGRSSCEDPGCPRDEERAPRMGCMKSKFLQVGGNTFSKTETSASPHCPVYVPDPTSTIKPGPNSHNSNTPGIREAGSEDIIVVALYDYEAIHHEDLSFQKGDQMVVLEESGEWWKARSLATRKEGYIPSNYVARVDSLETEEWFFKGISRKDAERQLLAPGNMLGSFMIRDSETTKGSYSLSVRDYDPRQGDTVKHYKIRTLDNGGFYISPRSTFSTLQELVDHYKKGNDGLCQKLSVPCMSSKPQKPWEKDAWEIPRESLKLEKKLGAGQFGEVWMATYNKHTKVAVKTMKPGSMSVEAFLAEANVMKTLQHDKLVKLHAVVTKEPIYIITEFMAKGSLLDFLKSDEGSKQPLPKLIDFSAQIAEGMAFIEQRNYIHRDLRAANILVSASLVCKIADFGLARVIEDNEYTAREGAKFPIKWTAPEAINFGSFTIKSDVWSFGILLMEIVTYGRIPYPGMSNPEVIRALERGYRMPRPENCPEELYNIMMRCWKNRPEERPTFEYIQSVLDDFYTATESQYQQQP
T6 sequence (Q15303 26-1308, species assumed): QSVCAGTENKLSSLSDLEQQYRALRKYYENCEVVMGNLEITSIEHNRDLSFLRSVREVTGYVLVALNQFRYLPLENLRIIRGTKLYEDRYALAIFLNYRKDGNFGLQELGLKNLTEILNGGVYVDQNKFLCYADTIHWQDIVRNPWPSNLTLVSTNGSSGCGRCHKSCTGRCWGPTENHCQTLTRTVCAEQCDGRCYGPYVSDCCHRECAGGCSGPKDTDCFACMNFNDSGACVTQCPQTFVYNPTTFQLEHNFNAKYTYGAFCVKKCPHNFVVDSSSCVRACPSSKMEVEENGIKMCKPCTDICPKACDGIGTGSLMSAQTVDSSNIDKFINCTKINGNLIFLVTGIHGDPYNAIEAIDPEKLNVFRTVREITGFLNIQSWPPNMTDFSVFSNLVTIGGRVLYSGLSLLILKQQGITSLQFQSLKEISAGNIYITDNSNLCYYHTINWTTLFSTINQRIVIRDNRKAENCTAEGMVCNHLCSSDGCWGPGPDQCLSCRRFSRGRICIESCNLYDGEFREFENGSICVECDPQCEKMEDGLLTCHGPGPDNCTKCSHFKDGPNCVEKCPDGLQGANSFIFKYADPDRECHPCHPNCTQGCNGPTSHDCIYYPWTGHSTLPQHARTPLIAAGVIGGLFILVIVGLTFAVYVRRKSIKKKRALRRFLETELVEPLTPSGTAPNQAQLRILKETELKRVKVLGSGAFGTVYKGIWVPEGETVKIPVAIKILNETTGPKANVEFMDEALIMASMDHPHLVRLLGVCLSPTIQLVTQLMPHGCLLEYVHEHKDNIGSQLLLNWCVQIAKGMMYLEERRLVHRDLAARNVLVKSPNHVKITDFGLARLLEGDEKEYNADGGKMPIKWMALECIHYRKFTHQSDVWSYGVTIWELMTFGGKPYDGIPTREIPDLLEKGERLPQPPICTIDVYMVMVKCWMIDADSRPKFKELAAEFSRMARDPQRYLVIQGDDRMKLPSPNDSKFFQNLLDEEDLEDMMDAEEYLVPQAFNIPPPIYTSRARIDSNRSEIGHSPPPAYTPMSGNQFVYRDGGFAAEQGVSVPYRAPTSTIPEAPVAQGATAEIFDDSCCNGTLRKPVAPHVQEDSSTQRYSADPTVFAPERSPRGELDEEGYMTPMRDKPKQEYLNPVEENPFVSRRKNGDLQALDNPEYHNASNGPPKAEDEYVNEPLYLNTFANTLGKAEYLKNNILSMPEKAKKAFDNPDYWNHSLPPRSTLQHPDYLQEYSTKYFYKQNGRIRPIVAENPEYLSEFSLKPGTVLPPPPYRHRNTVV
T4 sequence (P17948 27-1338, species assumed): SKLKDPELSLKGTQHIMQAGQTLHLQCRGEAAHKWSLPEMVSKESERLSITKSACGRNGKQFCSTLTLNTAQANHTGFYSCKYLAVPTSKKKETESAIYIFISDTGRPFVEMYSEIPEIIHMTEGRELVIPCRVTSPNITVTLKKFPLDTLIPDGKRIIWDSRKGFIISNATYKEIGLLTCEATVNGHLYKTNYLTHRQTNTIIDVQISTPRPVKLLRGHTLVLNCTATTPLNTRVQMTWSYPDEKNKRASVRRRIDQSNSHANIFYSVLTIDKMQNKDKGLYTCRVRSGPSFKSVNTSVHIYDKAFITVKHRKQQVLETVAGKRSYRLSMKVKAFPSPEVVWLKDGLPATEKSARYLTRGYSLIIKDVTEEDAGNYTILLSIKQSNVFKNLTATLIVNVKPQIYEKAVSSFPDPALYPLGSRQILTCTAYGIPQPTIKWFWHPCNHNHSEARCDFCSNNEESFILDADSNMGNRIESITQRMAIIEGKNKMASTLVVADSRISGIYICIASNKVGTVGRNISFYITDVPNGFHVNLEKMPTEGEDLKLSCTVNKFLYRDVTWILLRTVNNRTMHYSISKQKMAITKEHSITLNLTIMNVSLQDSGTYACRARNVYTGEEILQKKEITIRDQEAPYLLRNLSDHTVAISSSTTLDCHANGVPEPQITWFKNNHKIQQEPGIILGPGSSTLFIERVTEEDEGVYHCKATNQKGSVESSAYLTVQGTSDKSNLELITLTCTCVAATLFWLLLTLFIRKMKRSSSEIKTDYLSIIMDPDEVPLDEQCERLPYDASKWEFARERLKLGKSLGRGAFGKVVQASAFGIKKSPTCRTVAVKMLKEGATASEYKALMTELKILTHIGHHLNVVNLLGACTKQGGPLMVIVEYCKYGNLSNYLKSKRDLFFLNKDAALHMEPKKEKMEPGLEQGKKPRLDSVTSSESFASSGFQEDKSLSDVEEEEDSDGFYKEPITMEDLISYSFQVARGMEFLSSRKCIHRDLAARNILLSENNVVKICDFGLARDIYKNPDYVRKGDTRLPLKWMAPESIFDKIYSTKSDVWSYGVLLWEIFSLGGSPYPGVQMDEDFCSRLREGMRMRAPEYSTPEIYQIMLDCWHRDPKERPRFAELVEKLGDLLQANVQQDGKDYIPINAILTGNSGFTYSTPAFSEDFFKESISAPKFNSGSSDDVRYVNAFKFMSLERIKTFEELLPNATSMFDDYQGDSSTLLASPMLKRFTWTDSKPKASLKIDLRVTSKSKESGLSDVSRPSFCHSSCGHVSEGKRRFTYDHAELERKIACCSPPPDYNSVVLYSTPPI
T3 sequence (P07949 29-1114): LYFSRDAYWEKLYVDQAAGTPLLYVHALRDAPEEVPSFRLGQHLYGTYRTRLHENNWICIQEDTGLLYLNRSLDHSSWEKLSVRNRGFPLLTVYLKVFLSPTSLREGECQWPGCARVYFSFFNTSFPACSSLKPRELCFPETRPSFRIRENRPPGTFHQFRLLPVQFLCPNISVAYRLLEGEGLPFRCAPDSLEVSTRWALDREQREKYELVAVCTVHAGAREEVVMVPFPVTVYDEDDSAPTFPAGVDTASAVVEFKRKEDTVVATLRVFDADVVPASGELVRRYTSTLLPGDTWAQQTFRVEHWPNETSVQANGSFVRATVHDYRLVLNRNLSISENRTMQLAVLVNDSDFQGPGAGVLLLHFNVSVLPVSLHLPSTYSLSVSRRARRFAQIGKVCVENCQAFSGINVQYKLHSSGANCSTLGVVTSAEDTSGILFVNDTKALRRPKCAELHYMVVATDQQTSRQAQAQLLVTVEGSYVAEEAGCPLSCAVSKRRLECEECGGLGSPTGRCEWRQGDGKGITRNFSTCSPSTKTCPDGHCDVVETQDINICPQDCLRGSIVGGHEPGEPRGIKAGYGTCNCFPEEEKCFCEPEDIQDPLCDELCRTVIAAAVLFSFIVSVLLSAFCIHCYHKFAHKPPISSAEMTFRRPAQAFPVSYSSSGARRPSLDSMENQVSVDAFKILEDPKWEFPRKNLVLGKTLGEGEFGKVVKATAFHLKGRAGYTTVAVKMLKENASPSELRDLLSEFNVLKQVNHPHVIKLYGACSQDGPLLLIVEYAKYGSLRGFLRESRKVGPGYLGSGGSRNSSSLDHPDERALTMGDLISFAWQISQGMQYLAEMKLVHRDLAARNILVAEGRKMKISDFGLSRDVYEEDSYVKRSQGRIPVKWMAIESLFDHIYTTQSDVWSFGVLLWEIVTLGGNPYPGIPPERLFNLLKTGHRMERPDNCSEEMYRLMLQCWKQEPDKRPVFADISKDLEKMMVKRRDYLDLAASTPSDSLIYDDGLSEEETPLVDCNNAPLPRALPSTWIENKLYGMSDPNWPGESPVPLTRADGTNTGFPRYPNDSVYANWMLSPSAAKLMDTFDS

Regarding `COc1cc(Nc2ncnc(-n3c(N)nc4cc(C(F)(F)F)ccc43)n2)cc(OC)c1OC` [Compound 292], the IC50 is 0.867 to 5.2 µM in assay [1]; 0.867 to 5.2 µM in assay [2]; 0.867 to 5.2 µM in assay [3]; 0.867 to 5.2 µM in assay [4]; 0.867 to 5.2 µM in assay [5]; above 9.75 µM in [6]. The figures for the IC50 in assay [7], in assay [8] and in assay [9] were 5.2 to 7.59 µM, 7.59 to 9.75 µM and above 9.75 µM, respectively.

Take `COc1cc(Nc2ncnc(-n3c(N)nc4cc(Cl)ccc43)n2)cc(OC)c1OC` [Compound 296]: the IC50 in assay [1] was below 0.935 µM; in assay [2], 0.935 to 5.61 µM; in [3], below 0.935 µM; in assay [4] it was 0.935 to 5.61 µM; in [5], 0.935 to 5.61 µM; in assay [6], 8.18 to 10.5 µM. The results for the IC50 in [7], in assay [8] and in [9] were 5.61 to 8.18 µM, 0.935 to 5.61 µM and above 10.5 µM, respectively.

As for `COc1cc(Nc2ncnc(-n3c(N)nc4cc([N+](=O)[O-])ccc43)n2)cc(OC)c1OC` [Compound 294], the IC50 in assay [1] is 0.912 to 5.47 µM; in assay [2] it was above 10.3 µM; in assay [3] it was 0.912 to 5.47 µM; in assay [4], above 10.3 µM; in assay [5], above 10.3 µM; in assay [6], above 10.3 µM. For the same molecule, the IC50 in [7], in assay [8] and in [9] was above 10.3 µM throughout.
